We go through 72 substances from publication PMC12102759 (Protein Science : A Publication of the Protein Society, 2025).

The experiment deals with G3BP1 NFT2. Type of experiment: binding, human. As to conditions: library DMS-BM; bait G3BP1 NFT2; prey CAPRIN1; AQMQGPYNFIQDSM(averaged): mean of the two overlapping peptides over the shared positions.
Take AQMQGPYNFIQDSM(averaged) Y7Y: the “DMS position-specific score (PSSM value) per amino-acid substitution, averaged” value was 0.5479.

In the case of “AQMQGPYNFIQDSM(averaged) D12F (AQMQGPYNFIQFSM)”, the “DMS position-specific score (PSSM value) per amino-acid substitution, averaged” value came out at 0.004771.

“AQMQGPYNFIQDSM(averaged) Q2Y (AYMQGPYNFIQDSM)”: the “DMS position-specific score (PSSM value) per amino-acid substitution, averaged” value was 0.05198.

Regarding “AQMQGPYNFIQDSM(averaged) M3N (AQNQGPYNFIQDSM)”, the “DMS position-specific score (PSSM value) per amino-acid substitution, averaged” value was 0.00226.

For the substance “AQMQGPYNFIQDSM(averaged) I10E (AQMQGPYNFEQDSM)”, the “DMS position-specific score (PSSM value) per amino-acid substitution, averaged” value is 0.0004486.

Regarding “AQMQGPYNFIQDSM(averaged) M3K (AQKQGPYNFIQDSM)”, the “DMS position-specific score (PSSM value) per amino-acid substitution, averaged” value stood at 0.006729.

Regarding “AQMQGPYNFIQDSM(averaged) I10K (AQMQGPYNFKQDSM)”, the “DMS position-specific score (PSSM value) per amino-acid substitution, averaged” value is reported as 0.0003536.

For “AQMQGPYNFIQDSM(averaged) Y7S (AQMQGPSNFIQDSM)”, the “DMS position-specific score (PSSM value) per amino-acid substitution, averaged” value amounted to 0.06469.

On to “AQMQGPYNFIQDSM(averaged) N8P (AQMQGPYPFIQDSM)”, for which the “DMS position-specific score (PSSM value) per amino-acid substitution, averaged” value amounted to 0.002565.

As for “AQMQGPYNFIQDSM(averaged) A1G (GQMQGPYNFIQDSM)”, the “DMS position-specific score (PSSM value) per amino-acid substitution, averaged” value amounted to 0.01098.

With “AQMQGPYNFIQDSM(averaged) Y7T (AQMQGPTNFIQDSM)”, the “DMS position-specific score (PSSM value) per amino-acid substitution, averaged” value is 0.

Turning to “AQMQGPYNFIQDSM(averaged) G5M (AQMQMPYNFIQDSM)”, the “DMS position-specific score (PSSM value) per amino-acid substitution, averaged” value came to 0.1116.

Turning to “AQMQGPYNFIQDSM(averaged) Q2S (ASMQGPYNFIQDSM)”, the “DMS position-specific score (PSSM value) per amino-acid substitution, averaged” value is on record as 0.004198.

Consider “AQMQGPYNFIQDSM(averaged) N8S (AQMQGPYSFIQDSM)”, for which the “DMS position-specific score (PSSM value) per amino-acid substitution, averaged” value is reported as 0.04423.

For the substance “AQMQGPYNFIQDSM(averaged) Y7M (AQMQGPMNFIQDSM)”, the “DMS position-specific score (PSSM value) per amino-acid substitution, averaged” value is recorded as 0.001832.

With “AQMQGPYNFIQDSM(averaged) D12N (AQMQGPYNFIQNSM)”, the “DMS position-specific score (PSSM value) per amino-acid substitution, averaged” value was 0.03064.

“AQMQGPYNFIQDSM(averaged) A1R (RQMQGPYNFIQDSM)”: the “DMS position-specific score (PSSM value) per amino-acid substitution, averaged” value is 0.004419.

In the case of “AQMQGPYNFIQDSM(averaged) F9K (AQMQGPYNKIQDSM)”, the “DMS position-specific score (PSSM value) per amino-acid substitution, averaged” value is 0.

In the case of “AQMQGPYNFIQDSM(averaged) Q11M (AQMQGPYNFIMDSM)”, the “DMS position-specific score (PSSM value) per amino-acid substitution, averaged” value was found to be 0.0771.

For the substance “AQMQGPYNFIQDSM(averaged) M3T (AQTQGPYNFIQDSM)”, the “DMS position-specific score (PSSM value) per amino-acid substitution, averaged” value was 0.05572.

In the case of “AQMQGPYNFIQDSM(averaged) G5H (AQMQHPYNFIQDSM)”, the “DMS position-specific score (PSSM value) per amino-acid substitution, averaged” value turned out to be 0.006873.

“AQMQGPYNFIQDSM(averaged) G5Q (AQMQQPYNFIQDSM)”: the “DMS position-specific score (PSSM value) per amino-acid substitution, averaged” value came to 0.004656.

“AQMQGPYNFIQDSM(averaged) Q2F (AFMQGPYNFIQDSM)”: the “DMS position-specific score (PSSM value) per amino-acid substitution, averaged” value stood at 0.3525.

Consider AQMQGPYNFIQDSM(averaged) G5G, for which the “DMS position-specific score (PSSM value) per amino-acid substitution, averaged” value is 0.2298.

With “AQMQGPYNFIQDSM(averaged) S13N (AQMQGPYNFIQDNM)”, the “DMS position-specific score (PSSM value) per amino-acid substitution, averaged” value is reported as 0.02537.

For “AQMQGPYNFIQDSM(averaged) P6Y (AQMQGYYNFIQDSM)”, the “DMS position-specific score (PSSM value) per amino-acid substitution, averaged” value is listed as 0.1155.

As for “AQMQGPYNFIQDSM(averaged) P6D (AQMQGDYNFIQDSM)”, the “DMS position-specific score (PSSM value) per amino-acid substitution, averaged” value was 0.01341.

Regarding “AQMQGPYNFIQDSM(averaged) F9R (AQMQGPYNRIQDSM)”, the “DMS position-specific score (PSSM value) per amino-acid substitution, averaged” value stood at 0.

For the substance AQMQGPYNFIQDSM(averaged) M14M, the “DMS position-specific score (PSSM value) per amino-acid substitution, averaged” value was 0.2883.

Take “AQMQGPYNFIQDSM(averaged) Y7E (AQMQGPENFIQDSM)”: the “DMS position-specific score (PSSM value) per amino-acid substitution, averaged” value is 0.0001172.

For “AQMQGPYNFIQDSM(averaged) Q2K (AKMQGPYNFIQDSM)”, the “DMS position-specific score (PSSM value) per amino-acid substitution, averaged” value is 0.006084.

In the case of “AQMQGPYNFIQDSM(averaged) Q11L (AQMQGPYNFILDSM)”, the “DMS position-specific score (PSSM value) per amino-acid substitution, averaged” value came to 0.00722.

For the substance “AQMQGPYNFIQDSM(averaged) F9E (AQMQGPYNEIQDSM)”, the “DMS position-specific score (PSSM value) per amino-acid substitution, averaged” value was found to be 0.

For the substance “AQMQGPYNFIQDSM(averaged) F9W (AQMQGPYNWIQDSM)”, the “DMS position-specific score (PSSM value) per amino-acid substitution, averaged” value worked out at 0.

Consider “AQMQGPYNFIQDSM(averaged) G5D (AQMQDPYNFIQDSM)”, for which the “DMS position-specific score (PSSM value) per amino-acid substitution, averaged” value came out at 0.001672.

“AQMQGPYNFIQDSM(averaged) Q4M (AQMMGPYNFIQDSM)”: the “DMS position-specific score (PSSM value) per amino-acid substitution, averaged” value came out at 0.02121.

As for AQMQGPYNFIQDSM(averaged) P6P, the “DMS position-specific score (PSSM value) per amino-acid substitution, averaged” value is 0.3942.

As for “AQMQGPYNFIQDSM(averaged) Q4H (AQMHGPYNFIQDSM)”, the “DMS position-specific score (PSSM value) per amino-acid substitution, averaged” value stood at 0.0707.

For the substance “AQMQGPYNFIQDSM(averaged) D12M (AQMQGPYNFIQMSM)”, the “DMS position-specific score (PSSM value) per amino-acid substitution, averaged” value amounted to 0.01204.

Take “AQMQGPYNFIQDSM(averaged) Q2E (AEMQGPYNFIQDSM)”: the “DMS position-specific score (PSSM value) per amino-acid substitution, averaged” value was 0.09844.

In the case of “AQMQGPYNFIQDSM(averaged) I10A (AQMQGPYNFAQDSM)”, the “DMS position-specific score (PSSM value) per amino-acid substitution, averaged” value came out at 0.0009869.

In the case of “AQMQGPYNFIQDSM(averaged) A1T (TQMQGPYNFIQDSM)”, the “DMS position-specific score (PSSM value) per amino-acid substitution, averaged” value is given as 0.005821.

On to “AQMQGPYNFIQDSM(averaged) F9T (AQMQGPYNTIQDSM)”, for which the “DMS position-specific score (PSSM value) per amino-acid substitution, averaged” value is on record as 0.

As to “AQMQGPYNFIQDSM(averaged) Y7G (AQMQGPGNFIQDSM)”, the “DMS position-specific score (PSSM value) per amino-acid substitution, averaged” value turned out to be 0.05778.

Take “AQMQGPYNFIQDSM(averaged) D12Y (AQMQGPYNFIQYSM)”: the “DMS position-specific score (PSSM value) per amino-acid substitution, averaged” value stood at 0.00358.

As to “AQMQGPYNFIQDSM(averaged) G5R (AQMQRPYNFIQDSM)”, the “DMS position-specific score (PSSM value) per amino-acid substitution, averaged” value is listed as 0.0001509.

On to “AQMQGPYNFIQDSM(averaged) G5F (AQMQFPYNFIQDSM)”, for which the “DMS position-specific score (PSSM value) per amino-acid substitution, averaged” value was found to be 0.2345.

On to “AQMQGPYNFIQDSM(averaged) Y7H (AQMQGPHNFIQDSM)”, for which the “DMS position-specific score (PSSM value) per amino-acid substitution, averaged” value is 0.0003057.

“AQMQGPYNFIQDSM(averaged) Q11H (AQMQGPYNFIHDSM)”: the “DMS position-specific score (PSSM value) per amino-acid substitution, averaged” value is 0.008689.

Regarding “AQMQGPYNFIQDSM(averaged) I10Q (AQMQGPYNFQQDSM)”, the “DMS position-specific score (PSSM value) per amino-acid substitution, averaged” value turned out to be 0.01591.

With “AQMQGPYNFIQDSM(averaged) D12S (AQMQGPYNFIQSSM)”, the “DMS position-specific score (PSSM value) per amino-acid substitution, averaged” value is 0.1749.

Consider “AQMQGPYNFIQDSM(averaged) M14E (AQMQGPYNFIQDSE)”, for which the “DMS position-specific score (PSSM value) per amino-acid substitution, averaged” value amounted to 0.2115.

Consider “AQMQGPYNFIQDSM(averaged) Y7W (AQMQGPWNFIQDSM)”, for which the “DMS position-specific score (PSSM value) per amino-acid substitution, averaged” value was 0.03599.

Consider “AQMQGPYNFIQDSM(averaged) I10G (AQMQGPYNFGQDSM)”, for which the “DMS position-specific score (PSSM value) per amino-acid substitution, averaged” value worked out at 0.004165.

As to “AQMQGPYNFIQDSM(averaged) M14P (AQMQGPYNFIQDSP)”, the “DMS position-specific score (PSSM value) per amino-acid substitution, averaged” value is 0.

For “AQMQGPYNFIQDSM(averaged) N8K (AQMQGPYKFIQDSM)”, the “DMS position-specific score (PSSM value) per amino-acid substitution, averaged” value is reported as 0.007096.

For “AQMQGPYNFIQDSM(averaged) N8E (AQMQGPYEFIQDSM)”, the “DMS position-specific score (PSSM value) per amino-acid substitution, averaged” value was 0.01047.

Turning to “AQMQGPYNFIQDSM(averaged) Q4E (AQMEGPYNFIQDSM)”, the “DMS position-specific score (PSSM value) per amino-acid substitution, averaged” value turned out to be 0.0003947.

Regarding “AQMQGPYNFIQDSM(averaged) A1D (DQMQGPYNFIQDSM)”, the “DMS position-specific score (PSSM value) per amino-acid substitution, averaged” value stood at 0.01051.

As for “AQMQGPYNFIQDSM(averaged) Q4K (AQMKGPYNFIQDSM)”, the “DMS position-specific score (PSSM value) per amino-acid substitution, averaged” value turned out to be 4.484e-5.

With “AQMQGPYNFIQDSM(averaged) N8A (AQMQGPYAFIQDSM)”, the “DMS position-specific score (PSSM value) per amino-acid substitution, averaged” value was 0.06427.

As to “AQMQGPYNFIQDSM(averaged) S13T (AQMQGPYNFIQDTM)”, the “DMS position-specific score (PSSM value) per amino-acid substitution, averaged” value stood at 0.05884.

“AQMQGPYNFIQDSM(averaged) Y7Q (AQMQGPQNFIQDSM)”: the “DMS position-specific score (PSSM value) per amino-acid substitution, averaged” value stood at 0.001996.

For “AQMQGPYNFIQDSM(averaged) Q4R (AQMRGPYNFIQDSM)”, the “DMS position-specific score (PSSM value) per amino-acid substitution, averaged” value came out at 0.00079.

Consider “AQMQGPYNFIQDSM(averaged) G5I (AQMQIPYNFIQDSM)”, for which the “DMS position-specific score (PSSM value) per amino-acid substitution, averaged” value came to 0.01217.

On to “AQMQGPYNFIQDSM(averaged) I10W (AQMQGPYNFWQDSM)”, for which the “DMS position-specific score (PSSM value) per amino-acid substitution, averaged” value stood at 0.1749.

Regarding “AQMQGPYNFIQDSM(averaged) M14G (AQMQGPYNFIQDSG)”, the “DMS position-specific score (PSSM value) per amino-acid substitution, averaged” value was 0.000626.

As to “AQMQGPYNFIQDSM(averaged) A1N (NQMQGPYNFIQDSM)”, the “DMS position-specific score (PSSM value) per amino-acid substitution, averaged” value was found to be 0.01838.

On to “AQMQGPYNFIQDSM(averaged) D12E (AQMQGPYNFIQESM)”, for which the “DMS position-specific score (PSSM value) per amino-acid substitution, averaged” value came out at 0.04092.

Consider “AQMQGPYNFIQDSM(averaged) G5K (AQMQKPYNFIQDSM)”, for which the “DMS position-specific score (PSSM value) per amino-acid substitution, averaged” value is 0.001793.

Turning to “AQMQGPYNFIQDSM(averaged) A1M (MQMQGPYNFIQDSM)”, the “DMS position-specific score (PSSM value) per amino-acid substitution, averaged” value was determined as 0.03265.

As for “AQMQGPYNFIQDSM(averaged) Q11V (AQMQGPYNFIVDSM)”, the “DMS position-specific score (PSSM value) per amino-acid substitution, averaged” value was determined as 0.06659.
